The values below come from patent US10174047B2, “Thienodiazepine derivatives or pharmaceutically acceptable salts thereof, and pharmaceutical composition including the same as an active ingredient” (Industry-University Cooperation Foundation Hanyang …, priority 2015, dated 2019).

The assay deals with A375P cell line (melanoma). Nature of the assay: Proliferation inhibition activity against A375P cell line (MTT assay). The note with it: A375P melanoma cells; for GI50: MTT assay, read-out: A375P (GI50); for effects against A375P: statement in words. Format: cell-based. The protocol:
Measurement of Proliferation Inhibition Activity Against A375P Cell Line (Melanoma)
An A375P cell line purchased from ATCC was cultured in a DMEM medium [containing 10% FBS, 1% penicillin/streptomycin] at 37° C. in the presence of 5% CO2. The cultured A375P cell line was taken using 0.05% trypsin-0.02% EDTA, and seeded into a 96-well plate at a density of 5×10^3 cells per well.
Cell viability was measured using an MTT [3-(4,5-dimethylthiazol-2-yl)-2,5-diphenyltetrazolium bromide] assay (CellTiter 96 Assay, Promega) as follows. 15 μl of dye was placed per well, the cells were cultured for 2 hours, and then treated with 100 μl of a stop solution, and after 24 hours, absorbance was measured. One day after plating, they were treated with compounds. For treatment with compounds, […] of stock was prepared, and serially diluted to one-third in dimethyl sulfoxide (DMSO) to prepare a 12-point test compound plate, and 0.5 μl was added (final concentration DMSO 0.5%).
In the following Tables 1 to 3, in a case of GI50 being 10 to 30 μM, it was indicated as (+), in a case of it being 1 to 10 μM, it was indicated as (++), and in case of being less than 1 μM, it was indicated as (+++).
In general terms: Formazan colour is commonly taken as a measure of viable cells.

A value given as a limit tells only on which side of the number the result lay.

The GI50 is the concentration at which growth is held to half of that of the control. Regarding `O=C(Cc1c[nH]c2ccccc12)Nc1ccc(C2=Nc3cscc3NC(=O)C2)cc1` [Example 14, 2-(1H-indol-3-yl)-N-(4-(2-oxo-2,3-dihydro-1H-thieno[3,4-b][1,4]diazepine-4-yl)phenyl)acetamide], the GI50 fell in the range of 10 to 30 µM.
Turning to `N#Cc1ccccc1Sc1ccccc1C(=O)Nc1ccc(C2=Nc3cscc3NC(=O)C2)cc1` [Example 15, 2-(2-cyanophenylthio)-N-(4-(2-oxo-2,3-dihydro-1H-thieno[3,4-b][1,4]diazepine-4-yl)phenyl)benzamide], the GI50 lay in the range of 10 to 30 µM.
Same read-out and setting: the result for `O=C(Cc1ccc(-c2ccccc2)cc1)Nc1ccc(C2=Nc3cscc3NC(=O)C2)cc1` [Example 16, 2-(biphenyl-4-yl)-N-(4-(2-oxo-2,3-dihydro-1H-thieno[3,4-b][1,4]diazebine-4-yl)phenyl)acetamide] reads 10 to 30 µM; that for `Cc1cc(C)cc(C(=O)Nc2ccc(C3=Nc4cscc4NC(=O)C3)cc2)c1` [Example 17, 3,5-dimethyl-N-(4-(2-oxo-2,3-dihydro-1H-thieno[3,4-b][1,4]diazepine-4-yl)phenyl)benzamide], 10 to 30 µM.
In the case of `O=C1CC(c2cccc(NC(=O)c3ccc(Cl)c(C(F)(F)F)c3)c2)=Nc2cscc2N1` [Example 18, 4-chloro-N-(3-(2-oxo-2,3-dihydro-1H-thieno[3,4-b][1,4]diazepine-4-yl)phenyl)-3-(trifluoromethyl)benzamide], the GI50 was in the range of 1 to 10 µM.
On the same count and under the same terms, the result for `Cc1cn(-c2cc(C(=O)Nc3cccc(C4=Nc5cscc5NC(=O)C4)c3)cc(C(F)(F)F)c2)cn1` [Example 19, 3-(4-methyl-1H-imidazol-1-yl)-N-(3-(2-oxo-2,3-dihydro-1H-thieno[3,4-b][1,4]diazepine-4-yl)phenyl)-5-(trifluoromethyl)benzamide] reads 10 to 30 µM.
As for `O=C1CC(c2cccc(NC(=O)c3cc(N4CCOCC4)cc(C(F)(F)F)c3)c2)=Nc2cscc2N1` [Example 20, 3-morpholino-N-(3-(2-oxo-2,3-dihydro-1H-thieno[3,4-b][1,4]diazepine-4-yl)phenyl)-5-(trifluoromethyl)benzamide], the GI50 was less than 1 µM and the “effects against A375P” value is “significant effects”.
Turning to `O=C1CC(c2cccc(NC(=O)c3ccc(N4CCOCC4)c(C(F)(F)F)c3)c2)=Nc2cscc2N1` [Example 21, 4-morpholino-N-(3-(2-oxo-2,3-dihydro-1H-thieno[3,4-b][1,4]diazepine-4-yl)phenyl)-3-(trifluoromethyl)benzamide], the GI50 fell in the range of 1 to 10 µM.
The same measure, in the same setting: the value for `O=C1CC(c2cccc(NC(=O)c3ccc(-c4ccccc4)cc3)c2)=Nc2cscc2N1` [Example 22, N-(3-(2-oxo-2,3-dihydro-1H-thieno[3,4-b][1,4]diazepine-4-yl)phenyl)biphenyl-4-carboxamide] was 10 to 30 µM; that for `O=C1CC(c2cccc(NC(=O)c3ccccc3-c3ccccc3)c2)=Nc2cscc2N1` [Example 23, N-(3-(2-oxo-2,3-dihydro-1H-thieno[3,4-b][1,4]diazepine-4-yl)phenyl)biphenyl-2-carboxamide] was 10 to 30 µM.
Same read-out and setting: the value for `O=C1CC(c2cccc(NC(=O)c3cnn(-c4ccccc4)c3C(F)(F)F)c2)=Nc2cscc2N1` [Example 24, N-(3-(2-oxo-2,3-dihydro-1H-thieno[3,4-b][1,4]diazepine-4-yl)phenyl)-1-phenyl-5-(trifluoromethyl)-1H-pyrazole-4-carboxamide] was 10 to 30 µM; that for `CC(=O)N1CCC(C(=O)Nc2cccc(C3=Nc4cscc4NC(=O)C3)c2)CC1` [Example 25, 1-acetyl-N-(3-(2-oxo-2,3-dihydro-1H-thieno[3,4-b][1,4]diazepine-4-yl)phenyl)piperidine-4-carboxamide] was 10 to 30 µM; that for `O=C1CC(c2cccc(NC(=O)C(c3ccc(Cl)cc3)c3ccc(Cl)cc3)c2)=Nc2cscc2N1` [Example 26, 2,2-bis(4-chlorophenyl)-N-(3-(2-oxo-2,3-dihydro-1H-thieno[3,4-b][1,4]diazepine-4-yl)phenyl)acetamide] was 10 to 30 µM.
On the same count and under the same terms, the value for `O=C1CC(c2cccc(NC(=O)c3ccncc3)c2)=Nc2cscc2N1` [Example 27, N-(3-(2-oxo-2,3-dihydro-1H-thieno[3,4-b][1,4]diazepine-4-yl)phenyl)isonicotinamide] was 10 to 30 µM.
As to `O=C1CC(c2cccc(NC(=O)c3cnccn3)c2)=Nc2cscc2N1` [Example 28, N-(3-(2-oxo-2,3-dihydro-1H-thieno[3,4-b][1,4]diazepine-4-yl)phenyl)pyrazine-2-carboxamide], the GI50 lay in the range of 10 to 30 µM.
With `CN1CCN(c2cc(C(=O)Nc3cccc(C4=Nc5cscc5NC(=O)C4)c3)cc(C(F)(F)F)c2)CC1` [Example 29, 3-(4-methylpiperazine-1-yl)-N-(3-(2-oxo-2,3-dihydro-1H-thieno[3,4-b][1,4]diazepine-4-yl)phenyl)-5-(trifluoromethyl)benzamide], the 50% growth inhibitory concentration (GI50) was 10 to 30 µM.
Regarding `O=C1CC(c2cccc(NC(=O)c3ccc(Cl)cc3)c2)=Nc2cscc2N1` [Example 30, 4-chloro-N-(3-(2-oxo-2,3-dihydro-1H-thieno[3,4-b][1,4]diazepine-4-yl)phenyl)benzamide], the GI50 fell in the range of 10 to 30 µM.
On to `O=C(Cc1c[nH]c2ccccc12)Nc1cccc(C2=Nc3cscc3NC(=O)C2)c1` [Example 31, 2-(1H-indol-3-yl)-N-(3-(2-oxo-2,3-dihydro-1H-thieno[3,4-b][1,4]diazepine-4-yl)phenyl)acetamide], for which the GI50 was 10 to 30 µM.
Regarding `N#Cc1ccccc1Sc1ccccc1C(=O)Nc1cccc(C2=Nc3cscc3NC(=O)C2)c1` [Example 32, 2-(2-cyanophenylthio)-N-(3-(2-oxo-2,3-dihydro-1H-thieno[3,4-b][1,4]diazepine-4-yl)phenyl)benzamide], the concentration for 50% growth inhibition (GI50) was in the range of 10 to 30 µM.
Still for that read-out and setting: the result for `O=C(Cc1ccc(-c2ccccc2)cc1)Nc1cccc(C2=Nc3cscc3NC(=O)C2)c1` [Example 33, 2-(biphenyl-4-yl)-N-(3-(2-oxo-2,3-dihydro-1H-thieno[3,4-b][1,4]diazepine-4-yl)phenyl)acetamide] reads 10 to 30 µM.
As to `Cc1cc(C)cc(C(=O)Nc2cccc(C3=Nc4cscc4NC(=O)C3)c2)c1` [Example 34, 3,5-dimethyl-N-(3-(2-oxo-2,3-dihydro-1H-thieno[3,4-b][1,4]diazepine-4-yl)phenyl)benzamide], the GI50 was in the range of 10 to 30 µM.
Same read-out and setting: the value for `O=C(Cc1ccccc1F)Nc1cccc(C2=Nc3cscc3NC(=O)C2)c1` [Example 35, 2-(2-fluorophenyl)-N-(3-(2-oxo-2,3-dihydro-1H-thieno[3,4-b][1,4]diazepine-4-yl)phenyl)acetamide] was 10 to 30 µM; that for `O=C1CC(c2cccc(NC(=O)c3ccc4ccccc4n3)c2)=Nc2cscc2N1` [Example 36, N-(3-(2-oxo-2,3-dihydro-1H-thieno[3,4-b][1,4]diazepine-4-yl)phenyl)quinoline-2-carboxamide] was 10 to 30 µM.
Take `O=C1CC(c2cccc(NC(=O)c3cnc4ccccc4c3)c2)=Nc2cscc2N1` [Example 37, N-(3-(2-oxo-2,3-dihydro-1H-thieno[3,4-b][1,4]diazepine-4-yl)phenyl)quinoline-3-carboxamide]: the GI50 is 10 to 30 µM.
The same measure, in the same setting: the result for `Cc1c(C)c2c(c(C)c1O)CC[C@](C)(C(=O)Nc1cccc(C3=Nc4cscc4NC(=O)C3)c1)O2` [Example 38, (R)-6-hydroxy-2,5,7,8-tetramethyl-N-(3-(2-oxo-2,3-dihydro-1H-thieno[3,4-b][1,4]diazepine-4-yl)phenyl)chroman-2-carboxamide] reads 10 to 30 µM.
`O=C1CC(c2ccc(NC(=O)Nc3ccc(Cl)c(C(F)(F)F)c3)cc2)=Nc2cscc2N1` [Example 39, 1-(4-chloro-3-(trifluoromethyl)phenyl)-3-(4-(2-oxo-2,3-dihydro-1H-thieno[3,4-b][1,4]diazepine-4-yl)phenyl)urea]: the GI50 is less than 1 µM and the “effects against A375P” value is recorded as “significant effects”.
For `O=C1CC(c2ccc(NC(=O)Nc3ccc(Cl)cc3)cc2)=Nc2cscc2N1` [Example 40, 1-(4-chlorophenyl)-3-(4-(2-oxo-2,3-dihydro-1H-thieno[3,4-b][1,4]diazepine-4-yl)phenyl)urea], the GI50 was in the range of 1 to 10 µM.
Turning to `O=C1CC(c2ccc(NC(=O)Nc3cccc(Cl)c3)cc2)=Nc2cscc2N1` [Example 41, 1-(3-chlorophenyl)-3-(4-(2-oxo-2,3-dihydro-1H-thieno[3,4-b][1,4]diazepine-4-yl)phenyl)urea], the GI50 was in the range of 10 to 30 µM.
The same measure, in the same setting: the result for `O=C1CC(c2ccc(NC(=O)Nc3ccc(Cl)c(Cl)c3)cc2)=Nc2cscc2N1` [Example 42, 1-(3,4-dichlorophenyl)-3-(4-(2-oxo-2,3-dihydro-1H-thieno[3,4-b][1,4]diazepine-4-yl)phenyl)urea] reads 1 to 10 µM.
As for `O=C1CC(c2ccc(NC(=O)Nc3cc(Cl)cc(Cl)c3)cc2)=Nc2cscc2N1` [Example 44, 1-(3,5-dichlorophenyl)-3-(4-(2-oxo-2,3-dihydro-1H-thieno[3,4-b][1,4]diazepine-4-yl)phenyl)urea], the GI50 was less than 1 µM and the “effects against A375P” value is on record as “significant effects”.
Regarding `O=C1CC(c2ccc(NC(=O)Nc3ccccc3F)cc2)=Nc2cscc2N1` [Example 45, 1-(2-fluorophenyl)-3-(4-(2-oxo-2,3-dihydro-1H-thieno[3,4-b][1,4]diazepine-4-yl)phenyl)urea], the GI50 lay within 10 to 30 µM.
